Data published in patent US20070149562A1, “OXOPIPERIDINE DERIVATIVES, PREPARATION AND THERAPEUTIC USE THEREOF” (SANOFI-AVENTIS, priority 2004, published 2007).
Where a name gives a salt, the structure may show the parent alone.

Tests used:
human MC3 receptor = target: T1, human MC3 receptor (Homo sapiens, UniProt P41968); experiment: Functional assay of agonist activity: cAMP formation; type: cell-based; settings: CHO(dhfr-) cells expressing human MC3 receptor, 1 hour incubation, read-out: EC50 with respect to the MC3 receptor
T1 construct: expressed in transfected cells; host or cells: CHO(dhfr-)
T1 sequence (P41968 whole entry): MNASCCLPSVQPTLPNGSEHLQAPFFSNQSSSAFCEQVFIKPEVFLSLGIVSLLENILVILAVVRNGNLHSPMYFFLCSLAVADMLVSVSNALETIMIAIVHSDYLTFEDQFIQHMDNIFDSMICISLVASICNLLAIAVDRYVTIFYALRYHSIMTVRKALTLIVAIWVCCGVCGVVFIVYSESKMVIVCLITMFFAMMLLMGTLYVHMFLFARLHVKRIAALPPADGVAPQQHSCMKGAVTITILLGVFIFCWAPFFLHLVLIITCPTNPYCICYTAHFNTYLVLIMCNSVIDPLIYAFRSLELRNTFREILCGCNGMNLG
Description: (§1) A functional assay is used to differentiate between the agonist activity and the antagonist activity. For this, the formation of cyclic adenosine monophosphate (cAMP) generated by activation of the MC3 receptor or of the MC4 receptor is assayed.
CHO(dhfr-) cells expressing the human MC3 receptor are seeded into MEM Eagle culture medium (Sigma) containing 10% of dialysed calf serum, 1% L-glutamine, 1% sodium pyruvate, 20 mg/500 ml L-proline, 0.3 mg/ml Geneticin and 0.5% PenStrep, these products being provided by Gibco/BR1, except for the dialysed calf serum (Cambrex) and the L-proline (Sigma).
(§2) The compounds to be tested (diluted in 10% DMSO), in an amount of 10 ul at a concentration of 10 times the final concentration, are added to the plates of cells (final volume=100 ul/well). After incubation for 1 hour (37° C., 5% CO2), the amount of cAMP is assayed using Tropix kits (Appelera) according to the supplier's documentation. The intrinsic activity of the compounds is calculated by comparing the stimulation of cAMP by these compounds to the stimulation induced by 30 nM of NDP MSH (maximum of 100%). The EC50 value for the compounds corresponds to the concentration which produces 50% of the maximum stimulation obtained with this compound.

human MC4 receptor [1] = target: T2, human MC4 receptor (Homo sapiens, UniProt P32245); experiment: as above; type: cell-based; settings: CHO-K1 cells expressing human MC4 receptor, 1 hour incubation, read-out: EC50 with respect to the MC4 receptor
T2 construct: host or cells: CHO-K1
T2 sequence (P32245 whole entry): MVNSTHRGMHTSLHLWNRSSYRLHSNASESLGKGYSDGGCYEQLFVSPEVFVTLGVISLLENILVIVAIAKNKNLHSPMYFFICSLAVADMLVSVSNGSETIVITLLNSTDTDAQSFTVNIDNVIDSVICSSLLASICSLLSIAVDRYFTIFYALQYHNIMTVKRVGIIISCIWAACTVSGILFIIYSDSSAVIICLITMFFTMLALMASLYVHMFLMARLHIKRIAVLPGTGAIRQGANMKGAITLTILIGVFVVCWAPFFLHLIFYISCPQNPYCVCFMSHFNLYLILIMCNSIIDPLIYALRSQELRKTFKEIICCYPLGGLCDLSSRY
Description: as §1
CHO-K1 cells, expressing the human MC4 receptor at a moderate density (Euroscreen), are seeded into DMEM/Nutrient Mix F12 culture medium (Gibco/BR1) containing 10% of foetal calf serum, 0.5% sodium pyruvate, 1% L-glutamine, 1% non-essential amino acids, 200 mg/l hygromycin B and 0.5% PenStrep, these products being provided by Gibco/BR1, except the calf serum (Biowhittaker) and hygromycin B (Sigma).
as §2

human MC4 receptor [2] = target: T2, human MC4 receptor; experiment: Affinity assay: displacement of [125I]-[Nle4-D-Phe7]-α-MSH binding to cell membranes (SPA); settings: membranes of CHO-K1 cells expressing human MC4 receptor; radioligand 100 pM; read-out: IC50 with respect to the MC4 receptor
Description: This affinity assay is carried out by measuring the binding of [^125I]-[Nle^4-D-Phe^7]-[…]-MSH to cell membranes. The displacement of this radioligand is used to identify inhibitors of the specific binding to recombinant melanocortin receptors.
For this assay, membranes prepared from CHO-K1 cells expressing the human MC4 receptor at high density (Euroscreen) or membranes, that were purchased (Perkin Elmer Life Sciences, Receptor Biology), of HEK-293 cells expressing hMC3 receptors were used. CHO-K1 cells transfected with the hMC4 receptor gene (Euroscreen) are seeded into DMEM/Nutrient Mix F12 culture medium containing 10% foetal calf serum (Biowhittaker), 1% sodium pyruvate, 1% L-glutamine, 1% non-essential amino acids, 0.4 mg/ml geneticin (G418) and 0.5% PenStrep, these products being provided by Gibco/BR1, except the calf serum. At 80% confluency, the cells are scraped off and the cell pellets are frozen at −80° C.
A tube of cells (approximately 70×10^6 cells) is thawed on ice and resuspended in 10 ml of binding buffer [25 mM HEPES, pH 7.0, 1 mM MgCl2, 1.5 mM CaCl2, 100 mM NaCl, 1 mM 1,10-phenanthroline and 1 tablet of Complete™ (protease inhibitor from Roche) in 50 ml of buffer]using a polytron for 20 seconds. The suspension is centrifuged for 20 min at 19 500 rpm at 4° C. The supernatant is discarded and the pellet is resuspended in 5 ml of binding buffer. The amount of proteins present in the sample is assayed using a Bradford test, and the concentration is adjusted to 3 ug/25 ul by dilution in binding buffer.
[^125I]-[Nle^4, D-Phe^7]-[…]-MSH is diluted in binding buffer+0.2% BSA. SPA beads (wheatgerm agglutinin polyvinyltoluene, Amersham Pharmacia Biotech) are hydrated in the binding buffer+0.2% BSA and are then mixed with the cell homogenate so as to obtain 3 μg of cell proteins and 250 ug of beads in 50 ul. […] The nonspecific binding is defined by NDP-DMSH at 10^-7 M. The total binding is measured by the number of counts per minute in the presence of the radioligand alone. […]

| Structure (SMILES) | EC50 (human MC3 receptor) | EC50 (human MC4 receptor [1]) | IC50 (human MC4 receptor [2]) | melting point |
| --- | --- | --- | --- | --- |
| O=C([C@@H](Cc1ccc(Cl)cc1)NC1CCNCC1)N1CCC(Cn2cncn2)(C2CCCCC2)CC1 (as salt: HCl) [Compound 1, N-{(1R)-1-(4-chlorobenzyl)-2-[4-cyclohexyl-4-(1H-1,2,4-triazol-1-ylmethyl)piperidin-1-yl]-2-oxoethyl}piperidin-4-amine] | – | – | – | 255 °C |
| O=C([C@@H](Cc1ccc(Cl)cc1)NC1CCNCC1)N1CCC(Cn2cncn2)(C2CCCCC2)CC1 [Compound 1, N-{(1R)-1-(4-chlorobenzyl)-2-[4-cyclohexyl-4-(1H-1,2,4-triazol-1-ylmethyl)piperidin-1-yl]-2-oxoethyl}piperidin-4-amine] | 200 nM | 50 nM | 250 nM | – |
| N[C@H]1CC[C@@H](N[C@H](Cc2ccc(Cl)cc2)C(=O)N2CCC(Cn3cncn3)(C3CCCCC3)CC2)CC1 (as salt: HCl) [Compound 12, cis-N-{(1R)-1-(4-chlorobenzyl)-2-[4-cyclohexyl-4-(1H-1,2,4-triazol-1-ylmethyl)piperidin-1-yl]-2-oxoethyl}cyclohexane-1,4-diamine] | – | – | – | 159 °C |
| NCC(=O)N[C@H]1CC[C@@H](N[C@H](Cc2ccc(Cl)cc2)C(=O)N2CCC(Cn3cncn3)(C3CCCCC3)CC2)CC1 (as salt: HCl) [Compound 116, N-[cis-4-({(1R)-1-(4-chlorobenzyl)-2-[4-cyclohexyl-4-(1H-1,2,4-triazol-1-ylmethyl)piperidin-1-yl]-2-oxoethyl}amino)cyclohexyl]glycinamide] | – | – | – | 128 °C |

More lines, now with the values ahead:

| EC50 (human MC3 receptor) | EC50 (human MC4 receptor [1]) | IC50 (human MC4 receptor [2]) | melting point | Structure (SMILES) |
| --- | --- | --- | --- | --- |
| 100 nM | 20 nM | 200 nM | – | N[C@H]1CC[C@@H](N[C@H](Cc2ccc(Cl)cc2)C(=O)N2CCC(Cn3cncn3)(C3CCCCC3)CC2)CC1 [Compound 12, cis-N-{(1R)-1-(4-chlorobenzyl)-2-[4-cyclohexyl-4-(1H-1,2,4-triazol-1-ylmethyl)piperidin-1-yl]-2-oxoethyl}cyclohexane-1,4-diamine] |
| 110 nM | 60 nM | 570 nM | 75 °C | O=C([C@@H](Cc1ccc(Cl)cc1)NC1CCOCC1)N1CCC(Cn2cncn2)(C2CCCCC2)CC1 [Compound 2, N-{(1R)-1-(4-chlorobenzyl)-2-[4-cyclohexyl-4-(1H-1,2,4-triazol-1-ylmethyl)piperidin-1-yl]-2-oxoethyl}tetrahydro-2H-pyran-4-amine] |
| – | – | – | > 200 °C | CS(=O)(=O)N1CCC(N[C@H](Cc2ccc(Cl)cc2)C(=O)N2CCC(Cn3cncn3)(C3CCCCC3)CC2)CC1 (as salt: HCl) [Compound 54, N-{(1R)-1-(4-chlorobenzyl)-2-[4-cyclo-hexyl-4-(1H-1,2,4-triazol-1-ylmethyl)piperidin-1-yl]-2-oxoethyl}-1-(methylsulphonyl)piperidin-4-amine] |
